Test results published in patent US10087156B2, “Methods and compositions related to retinoid receptor-selective pathway” (Sanford Burnham Prebys Medical Discovery Institute, priority 2010, dated 2018).

What was measured:
RXRα/Δ80 tumor = RXRα/Δ80 tumor growth in animals; type: in vivo; conditions: mice, 60 mg/kg intraperitoneally, two weeks
Description: Mice (n=6) were treated intraperitoneally with corn oil, Sulindac (60 mg/kg), or K-80003 (60 mg/kg) for two weeks. Tumors were removed and measured. […] Together, the RXRα-selective Sulindac analog K-80003 is a potent inhibitor of RXRα-mediated PI3K/AKT signaling and cancer cell growth.

COX-2 = target: T1, COX-2 (Homo sapiens, UniProt P35354); test: COX activity assay; type: biochemical
T1 construct: purchased Cayman Chemical 700100
Description: (§1) COX Fluorescent Activity Assay Kit (700200), COX Fluorescent Inhibitor Screening Assay Kit (700100) and Prostaglandin E2 Enzyme Immunoassay (EIA) Kit (514010) were obtained from Cayman Chemical (Ann Arbor, Mich.). COX-1 and COX-2 activity assay were performed according to the manufacturer's protocol.

COX-1 = target: T2, COX-1 (Ovis aries, UniProt P05979); test: COX activity assay; type: biochemical
T2 construct: purchased Cayman Chemical 700100
Description: as §1

RXRα LBD = RXRα LBD (Homo sapiens, UniProt P19793); test: 19F NMR binding assay; conditions: 100 μM compound, 10 μM RXRα LBD
[1] = Preclinical toxicity study; type: in vivo
Description: Preclinical studies of K-80003 were performed, including the investigation of toxicity, bioavailability, and pharmacokinetics.

AKT = test: Basal AKT activation by immunoblotting; type: cell-based; conditions: various cancer cell lines incl. SW480 and HCT116, 100 μM, 1 hr
Description: HepG2, SW480, RAW264.7, HCT116, LNCaP, PC3, ZR-75-1, and HaCat cells were starved overnight and treated with Sulindac (100 μM) for 1 hr and analyzed for AKT activation by immunoblotting (FIG. 3A). HepG2 cells were also transfected with RXRα siRNA for 48 hours, treated with Sulindac (100 μM) for 1 hour, and analyzed for AKT activation and RXRα expression by immunoblotting (FIG. 3B).
For immunoblotting, cell lysates were boiled in SDS sample buffer, resolved by SDS-polyacrylamide gel electrophoresis, and transferred to nitrocellulose. After transfer, the membranes were blocked in 5% milk in TBST (10 mM Tris-HCl, pH. 8.0, 150 mM NaCl, 0.05% Tween 20) containing antibody. The membranes were then washed three times with TBST, then incubated for 1 hr at room temperature in 5% milk in TBST containing horseradish peroxide-linked anti-immunoglobulin.

RARγ protein = RARγ protein (Homo sapiens, UniProt P13631); test: Ligand-binding assay with [3H]all-trans-RA; conditions: competition with [3H]all-trans-RA
Description: Purified RARγ protein was incubated with [^3H]all-trans-RA in the presence or absence of Sulindac or unlabeled all-trans RA. Bound [^3H]all-trans-RA was quantitated by liquid scintillation counting.

c-FLIP = c-FLIP expression by immunoblotting; type: cell-based; conditions: HepG2, A549 and SW480 cells, 6 hr
Description: Cells treated with TNFα and/or Sulindac for 6 hr were analyzed by immunoblotting (FIG. 6I). The expression of c-FLIP, a downstream target gene of AKT signaling, which acts as a potent inhibitor of the extrinsic apoptotic pathway by inhibiting caspase-8 activation, was examined. […] Thus, Sulindac may induce apoptosis by suppressing the inducing effect of TNFα on c-FLIP expression.

HepG2 cells [2] = test: Caspase-8 activation by anti-cleaved caspase-8 immunostaining; type: cell-based; conditions: TNFα and Sulindac
Description: (§2) PC3 cells transfected with CA-AKT or DN-AKT were treated with TNFα and/or Sulindac, and analyzed by immunoblotting (FIG. 6F). Activation of caspase-8 (FIG. 6G) and Bax (FIG. 6H) by Sulindac and TNFα. HepG2 cells transfected with CA-AKT were treated with TNFα and Sulindac, and immunostained with anti-cleaved caspase-8 or Bax/6A7 antibody. […] Sulindac/TNFα-induced PARP cleavage was inhibited by transfection of constitutive-active AKT (CA-AKT) but enhanced by transfection of dominant-negative AKT (DN-AKT) (FIG. 6F). Consistently, induction of apoptosis (FIG. 17B) and activation of caspase-8 (FIG. 6G) and Bax (FIG. 6H) by Sulindac/TNFα combination was inhibited by CA-AKT.

RXRα/TRα heterodimers = target: T3, RXRα/TRα heterodimers (Homo sapiens, UniProt P19793); test: TREpal2-tk-CAT reporter assay in CV-1 cells; type: cell-based; conditions: T3 10^−7 M
T3 construct: expressed in transfected cells; host or cells: CV-1 green monkey kidney cells
Description: Receptor expression vectors and a reporter gene (TREpal2-tk-CAT for RXRα/TRα heterodimers (FIG. 9C), and DR1 tk-CAT for RXRα/PPARγ heterodimer (FIG. 9B)) were transiently transfected into CV-1 cells. Cells were treated with or without ligands (ciglitazone, 10^−6 M; T3, 10^−7 M) in the presence or absence of Sulindac. CAT activity was determined.
Cells (1×10^5 cells/well) seeded in 24-well plates were transiently transfected using a modified calcium phosphate precipitation procedure as described (Kolluri, S. K. et al., Proc Natl Acad Sci USA 102 (7), 2525-2530 (2005); Cao, X., et al., Mol Cell Biol 24(22), 9705-9725 (2004)).

HepG2 cells [3] = test: Bax activation by Bax/6A7 immunostaining; type: cell-based
Description: as §2, with “Activation of Bax by Sulindac and TNFα. HepG2 cells treated with TNFα and/or Sulindac were immunostained with Bax/6A7 antibody. […] HepG2 cells treated with TNFα or Sulindac alone or together were examined for Bax activation by immunostaining using conformation-sensitive Bax/6A7 antibody. Significant Bax staining was observed only when cells were treated with both TNFα and Sulindac (FIG. 6E). Cross-talk between extrinsic and intrinsic apoptotic pathways can be linked through Bid cleavage and activation (Li et al., Cell 94 (4), 491-501 (1998)). […] PC3” for “PC3”

T3 sequence (P19793 whole entry): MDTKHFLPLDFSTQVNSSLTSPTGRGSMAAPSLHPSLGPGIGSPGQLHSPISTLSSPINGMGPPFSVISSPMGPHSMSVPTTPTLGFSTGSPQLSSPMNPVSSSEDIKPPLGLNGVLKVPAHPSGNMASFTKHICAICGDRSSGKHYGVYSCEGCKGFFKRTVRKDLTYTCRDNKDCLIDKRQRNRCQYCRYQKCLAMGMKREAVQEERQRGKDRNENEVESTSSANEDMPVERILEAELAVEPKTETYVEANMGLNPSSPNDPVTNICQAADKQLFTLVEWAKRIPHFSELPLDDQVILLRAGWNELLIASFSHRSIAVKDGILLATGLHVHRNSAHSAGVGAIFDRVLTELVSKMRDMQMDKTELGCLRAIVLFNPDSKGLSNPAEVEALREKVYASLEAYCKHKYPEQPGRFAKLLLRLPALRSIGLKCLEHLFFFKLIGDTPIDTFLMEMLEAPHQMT
T3 sequence (P10827 1-410 isoform P10827-2 partner): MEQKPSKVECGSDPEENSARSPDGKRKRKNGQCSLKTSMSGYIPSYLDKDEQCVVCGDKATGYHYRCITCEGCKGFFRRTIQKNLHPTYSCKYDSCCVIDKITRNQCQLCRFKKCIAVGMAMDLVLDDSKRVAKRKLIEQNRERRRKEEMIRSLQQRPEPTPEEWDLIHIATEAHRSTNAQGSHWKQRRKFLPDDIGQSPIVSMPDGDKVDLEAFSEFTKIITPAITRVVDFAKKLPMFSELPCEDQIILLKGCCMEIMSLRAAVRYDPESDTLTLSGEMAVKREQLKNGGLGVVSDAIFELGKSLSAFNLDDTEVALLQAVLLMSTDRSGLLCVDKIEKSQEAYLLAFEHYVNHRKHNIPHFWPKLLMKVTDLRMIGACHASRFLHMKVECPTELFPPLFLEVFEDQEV
Chain of RXRα LBD (P19793 227-458 limits assumed): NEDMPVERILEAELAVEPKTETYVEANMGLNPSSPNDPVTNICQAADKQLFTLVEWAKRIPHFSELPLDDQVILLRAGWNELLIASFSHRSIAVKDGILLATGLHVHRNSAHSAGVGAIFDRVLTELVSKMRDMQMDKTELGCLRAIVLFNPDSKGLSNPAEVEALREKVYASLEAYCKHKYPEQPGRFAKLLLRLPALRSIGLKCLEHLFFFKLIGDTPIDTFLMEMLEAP
T1 sequence (P35354 18-604): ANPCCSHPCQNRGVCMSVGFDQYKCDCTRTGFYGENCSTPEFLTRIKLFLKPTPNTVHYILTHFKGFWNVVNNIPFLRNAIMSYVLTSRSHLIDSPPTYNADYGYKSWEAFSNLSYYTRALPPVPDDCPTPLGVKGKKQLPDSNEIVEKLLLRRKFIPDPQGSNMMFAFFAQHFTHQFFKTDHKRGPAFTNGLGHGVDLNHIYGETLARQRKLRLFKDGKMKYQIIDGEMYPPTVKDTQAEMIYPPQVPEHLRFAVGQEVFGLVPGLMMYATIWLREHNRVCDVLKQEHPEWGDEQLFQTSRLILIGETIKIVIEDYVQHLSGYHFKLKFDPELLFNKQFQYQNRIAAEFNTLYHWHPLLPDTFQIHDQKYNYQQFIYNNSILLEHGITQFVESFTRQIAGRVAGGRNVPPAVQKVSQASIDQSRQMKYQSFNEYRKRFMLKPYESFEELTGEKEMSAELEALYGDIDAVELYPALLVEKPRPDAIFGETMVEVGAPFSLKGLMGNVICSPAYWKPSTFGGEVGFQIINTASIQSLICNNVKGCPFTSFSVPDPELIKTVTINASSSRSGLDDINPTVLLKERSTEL
Chain of RARγ protein (P13631 whole entry, species assumed): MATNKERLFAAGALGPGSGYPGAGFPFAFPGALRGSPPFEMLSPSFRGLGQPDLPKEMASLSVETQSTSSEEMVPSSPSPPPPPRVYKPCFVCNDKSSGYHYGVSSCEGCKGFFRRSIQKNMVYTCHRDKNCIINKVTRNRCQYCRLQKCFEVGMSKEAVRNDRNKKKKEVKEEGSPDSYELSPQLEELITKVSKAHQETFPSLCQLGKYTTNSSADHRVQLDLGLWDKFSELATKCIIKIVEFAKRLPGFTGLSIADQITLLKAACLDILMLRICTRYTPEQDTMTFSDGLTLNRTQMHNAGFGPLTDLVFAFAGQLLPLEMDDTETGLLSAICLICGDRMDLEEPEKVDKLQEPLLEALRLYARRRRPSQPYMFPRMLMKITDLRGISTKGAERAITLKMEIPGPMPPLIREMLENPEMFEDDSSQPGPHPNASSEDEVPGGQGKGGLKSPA
T2 sequence (P05979 25-600): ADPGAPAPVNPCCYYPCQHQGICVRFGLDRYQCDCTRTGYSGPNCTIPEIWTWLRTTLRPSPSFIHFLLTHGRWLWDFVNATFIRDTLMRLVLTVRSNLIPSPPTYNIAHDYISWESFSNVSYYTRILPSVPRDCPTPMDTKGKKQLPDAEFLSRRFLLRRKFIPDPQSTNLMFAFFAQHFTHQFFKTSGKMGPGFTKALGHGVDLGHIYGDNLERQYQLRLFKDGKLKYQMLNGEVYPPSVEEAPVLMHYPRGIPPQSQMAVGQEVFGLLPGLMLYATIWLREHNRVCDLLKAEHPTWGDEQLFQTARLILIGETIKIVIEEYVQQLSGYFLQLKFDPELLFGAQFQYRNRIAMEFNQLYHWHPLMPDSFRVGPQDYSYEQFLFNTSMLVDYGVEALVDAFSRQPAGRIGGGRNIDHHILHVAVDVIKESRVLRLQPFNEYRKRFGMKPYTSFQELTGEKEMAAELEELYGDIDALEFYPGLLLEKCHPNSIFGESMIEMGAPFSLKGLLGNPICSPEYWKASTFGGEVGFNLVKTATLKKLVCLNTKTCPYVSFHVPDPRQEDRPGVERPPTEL

inhibition of COX-2 activity (COX-2) | inhibition of COX-1 activity (COX-1) | binding to RXRα by 19F NMR (RXRα LBD) | Structure (SMILES) | inhibition of RXRα/Δ80 tumor growth, compared with Sulindac (RXRα/Δ80 tumor) | toxicity [1] | inhibition of basal AKT activation (AKT) | binding to RARγ (RARγ protein) | TNFα induction of c-FLIP (c-FLIPS and c-FLIPL) (c-FLIP) | cells showing caspase-8 staining, CA-AKT-transfected (HepG2 cells [2]) | cells showing caspase-8 staining, nontransfected (HepG2 cells [2]) | transactivation of RXR/TR heterodimers (CAT activity) (RXRα/TRα heterodimers) | cells showing Bax staining, Sulindac/TNFα (HepG2 cells [3]; Bax/6A7 antibody) | cells exhibiting Bax staining, CA-AKT-transfected (HepG2 cells [3]; TNFα and Sulindac) | cells exhibiting Bax staining, nontransfected (HepG2 cells [3]; TNFα and Sulindac)
no detectable inhibition | no detectable inhibition | confirmed | CC1=C(CC(=O)O)c2cc(F)ccc2/C1=C\c1ccc(C(C)C)cc1 [K-80003, (Z)-2-(3-(4-Iso-propylbenzylidene)-6-fluoro-2-methyl-3H-inden-1-yl)acetic acid] | much more potent inhibitory effect than Sulindac | very low toxicity |  |  |  |  |  |  |  |  | 
 |  |  | CSc1ccc(/C=C2/C(C)=C(CC(=O)O)c3cc(F)ccc32)cc1 [Sulindac, (Z)-2-(3-(4-(Methylthio)benzylidene)-6-fluoro-2-methyl-3H-inden-1-yl)acetic acid] |  |  | Significant inhibition | did not bind | inhibited | 15% | About 80% | not RXR/TR heterodimers | about 60% | about 13% | About 60%
